From patent publication US9169254B2, “Spiroimidazolone derivative” (Chugai Seiyaku Kabushiki Kaisha, priority 2009, dated 2015)

Target: T1, human PTH1 receptor (Homo sapiens, UniProt Q03431)
T1 sequence (Q03431 27-593): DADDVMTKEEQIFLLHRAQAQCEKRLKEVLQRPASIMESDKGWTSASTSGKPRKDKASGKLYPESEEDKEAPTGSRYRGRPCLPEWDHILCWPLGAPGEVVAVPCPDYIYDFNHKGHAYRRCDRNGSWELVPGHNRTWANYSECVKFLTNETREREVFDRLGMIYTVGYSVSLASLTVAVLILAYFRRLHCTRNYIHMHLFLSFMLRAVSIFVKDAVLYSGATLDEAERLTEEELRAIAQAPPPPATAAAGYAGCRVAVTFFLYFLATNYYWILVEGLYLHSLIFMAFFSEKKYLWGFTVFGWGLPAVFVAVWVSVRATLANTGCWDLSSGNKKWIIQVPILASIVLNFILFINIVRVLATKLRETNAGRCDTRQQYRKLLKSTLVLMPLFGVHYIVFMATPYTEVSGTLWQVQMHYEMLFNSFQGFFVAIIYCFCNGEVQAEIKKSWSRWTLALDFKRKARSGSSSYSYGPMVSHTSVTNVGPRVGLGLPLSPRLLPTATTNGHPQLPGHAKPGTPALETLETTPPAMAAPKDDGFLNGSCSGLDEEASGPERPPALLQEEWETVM
Assay: In vitro cAMP signal activity in HKRK-B7 cells (LLC-PK1 cells overexpressing the human PTH1 receptor)
Type: cell-based
Details: HKRK-B7 cells; compound at 1×10^−3 M; cAMP produced as percentage of that produced by hPTH(1-34) at 100 nM

Going from `Cc1cc(N2C(=O)NC(C)C2=O)cc(C)c1/C=C/S(=O)(=O)N1CCC2(CC1)N=C(C1CCC(C)CC1)NC2=O` (centres unmarked) [Compound 582, 3-(3,5-dimethyl-4-{(E)-2-[2-(4-methyl-cyclohexyl)-4-oxo-1,3,8-triaza-spiro[4.5]dec-1-ene-8-sulfonyl]-vinyl}-phenyl)-5-methyl-imidazolidine-2,4-dione] to `Cc1cc(CN2CCCC2=O)cc(C)c1/C=C/S(=O)(=O)N1CCC2(CC1)N=C(C1CCC(C)CC1)NC2=O` (centres unmarked) [Compound 520, 8-{(E)-2-[2,6-dimethyl-4-(2-oxo-pyrrolidin-1-ylmethyl)-phenyl]-ethenesulfonyl}-2-(4-methyl-cyclohexyl)-1,3,8-triaza-spiro[4.5]dec-1-en-4-one], the “cAMP production activity (%)” value falls from 104% to 28%.

First: Cc1cc(N2C(=O)CNC2=O)cc(C)c1CCS(=O)(=O)N1CCC2(CC1)N=C(C1CCC(C)CC1)NC2=O (centres unmarked) [Compound 883, 3-(3,5-dimethyl-4-{2-[2-(4-methyl-cyclohexyl)-4-oxo-1,3,8-triaza-spiro[4.5]dec-1-ene-8-sulfonyl]-ethyl}-phenyl)-imidazolidine-2,4-dione]
Second: Cc1cc(N2C(=O)CNC2=O)ccc1CCS(=O)(=O)N1CCC2(CC1)N=C(C1CCC(C)(C)CC1)NC2=O [Compound 951, 3-(4-{2-[2-(4,4-dimethyl-cyclohexyl)-4-oxo-1,3,8-triaza-spiro[4.5]dec-1-ene-8-sulfonyl]-ethyl}-3-methyl-phenyl)-imidazolidine-2,4-dione]
The “cAMP production activity (%)” value of the first is lower: 56% for the first, 93% for the second.

First: Cc1cc(N(CCF)C(N)=O)cc(C)c1CCS(=O)(=O)N1CCC2(CC1)N=C(C1CCC(CCC(F)(F)F)CC1)NC2=O (centres unmarked) [Compound 818, 1-[3,5-dimethyl-4-(2-{4-oxo-2-[4-(3,3,3-trifluoro-propyl)-cyclohexyl]-1,3,8-triaza-spiro[4.5]dec-1-ene-8-sulfonyl}-ethyl)-phenyl]-1-(2-fluoro-ethyl)-urea]
Second: CCCC[C@@H]1CCC[C@H](C2=NC3(CCN(S(=O)(=O)CCc4c(C)cc(N(C)C(N)=O)cc4C)CC3)C(=O)N2)C1 [Compound 1145, 1-(4-{2-[2-((1S,3R)-3-butyl-cyclohexyl)-4-oxo-1,3,8-triaza-spiro[4.5]dec-1-ene-8-sulfonyl]-ethyl}-3,5-dimethyl-phenyl)-1-methyl-urea]
The “cAMP production activity (%)” value of the first is lower: 79% for the first, 102% for the second.

First: CC(=O)Nc1ccc(CCS(=O)(=O)N2CCC3(CC2)N=C(C24CC5CC(CC(C5)C2)C4)NC3=O)c(C)c1 [Compound 918, N-{4-[2-(2-adamantan-1-yl-4-oxo-1,3,8-triaza-spiro[4.5]dec-1-ene-8-sulfonyl)-ethyl]-3-methyl-phenyl}-acetamide]
Second: CC[C@H]1CC[C@H](C2=NC3(CCN(S(=O)(=O)CCc4ccc(N)c(Cl)c4C)CC3)C(=O)N2)CC1 [Compound 1293, 8-[2-(4-Amino-3-chloro-2-methyl-phenyl)-ethanesulfonyl]-2-(4-ethyl-cyclohexyl)-1,3,8-triaza-spiro[4.5]dec-1-en-4-one]
The “cAMP production activity (%)” value of the first is lower: 63% for the first, 84% for the second.

Compared with `O=C1NC(C2CCCCC2)=NC12CCN(S(=O)(=O)/C=C/c1cccc(F)c1F)CC2` [Compound 184, 2-cyclohexyl-8-[(E)-2-(2,3-difluoro-phenyl)-ethenesulfonyl]-1,3,8-triaza-spiro[4.5]dec-1-en-4-one], `CN1CCN(C(=O)Nc2ccc(/C=C/S(=O)(=O)N3CCC4(CC3)N=C(C3CCCCC3)NC4=O)c(C(F)(F)F)c2)CC1` [Compound 485, 4-methyl-piperazine-1-carboxylic acid {4-[(E)-2-(2-cyclohexyl-4-oxo-1,3,8-triaza-spiro[4.5]dec-1-ene-8-sulfonyl)-vinyl]-3-trifluoromethyl-phenyl}-amide] is lower in “cAMP production activity (%)” value: 37% for the first, 7.7% for the second.

Going from `Cc1cc(C(=O)N2CCC(O)(CF)CC2)cc(C)c1/C=C/S(=O)(=O)N1CCC2(CC1)N=C(c1ccc(OCC(F)(F)F)c(C(F)(F)F)c1)NC2=O` [Compound 1248, 8-{(E)-2-[4-(4-fluoromethyl-4-hydroxy-piperidine-1-carbonyl)-2,6-dimethyl-phenyl]-ethenesulfonyl}-2-[4-(2,2,2-trifluoro-ethoxy)-3-trifluoromethyl-phenyl]-1,3,8-triaza-spiro[4.5]dec-1-en-4-one] to `Cc1cc(C(=O)N2CCC(O)CC2)cc(C)c1/C=C/S(=O)(=O)N1CCC2(CC1)N=C(c1ccc(F)c(C(F)(F)F)c1)NC2=O` [Compound 535, 2-(4-fluoro-3-trifluoromethyl-phenyl)-8-{(E)-2-[4-(4-hydroxy-piperidine-1-carbonyl)-2,6-dimethyl-phenyl]-ethenesulfonyl}-1,3,8-triaza-spiro[4.5]dec-1-en-4-one], the “cAMP production activity (%)” value rises from 81% to 83%.

Compared with `O=C1NC(CCCCCCCCC(F)(F)F)=NC12CCN(S(=O)(=O)/C=C/c1cccc3c1ccn3C[C@H](O)CO)CC2` [Compound 622, 8-{(E)-2-[1-((S)-2,3-Dihydroxy-propyl)-1H-indol-4-yl]-ethenesulfonyl}-2-(9,9,9-trifluoro-nonyl)-1,3,8-triaza-spiro[4.5]dec-1-en-4-one], `O=C1NC(c2cccc(OC(F)(F)F)c2)=NC12CCN(S(=O)(=O)/C=C/c1cc(F)c(OCCC(O)CO)c(F)c1)CC2` (centres unmarked) [Compound 600, 8-{(E)-2-[4-(3,4-dihydroxy-butoxy)-3,5-difluoro-phenyl]-ethenesulfonyl}-2-(3-trifluoromethoxy-phenyl)-1,3,8-triaza-spiro[4.5]dec-1-en-4-one] is lower in “cAMP production activity (%)” value: 134% for the first, 67% for the second.

Compared with `C=CCCOc1cc(C2=NC3(CCN(S(=O)(=O)CCc4ccc(C(=O)N(C)CCOCC=C)cc4C)CC3)C(=O)N2)cc(C(F)(F)F)c1` [Compound 1419, N-(2-Allyloxy-ethyl)-4-{2-[2-(3-but-3-enyloxy-5-trifluoromethyl-phenyl)-4-oxo-1,3,8-triaza-spiro[4.5]dec-1-ene-8-sulfonyl]-ethyl}-3,N-dimethyl-benzamide], `Cc1cc(C(=O)N2CC(O)C2)cc(C)c1CCS(=O)(=O)N1CCC2(CC1)N=C(c1ccc(F)c(OC(F)(F)F)c1)NC2=O` [Compound 1337, 2-(4-fluoro-3-trifluoromethoxy-phenyl)-8-{2-[4-(3-hydroxy-azetidine-1-carbonyl)-2,6-dimethyl-phenyl]-ethanesulfonyl}-1,3,8-triaza-spiro[4.5]dec-1-en-4-one] is lower in “cAMP production activity (%)” value: 70% for the first, 44% for the second.

Compared with `[2H]C([2H])([2H])C([2H])([2H])C1=CC[C@H](C2=NC3(CCN([S@TB18](=O)(=O)/C=C/c4c(C)cc(N(C)C(N)=O)cc4C)CC3)C(=O)N2)CC1` [Compound 1129, 1-(4-{(E)-2-[2-(4-[1,1,2,2,2-^2H5]ethyl-cyclohex-3-enyl)-4-oxo-1,3,8-triaza-spiro[4.5]dec-1-ene-8-sulfonyl]-vinyl}-3,5-dimethyl-phenyl)-1-methyl-urea], `CSCCCCCCCC1=NC2(CCN(S(=O)(=O)/C=C/c3c(C)cc(N(C)C(N)=O)cc3C)CC2)C(=O)N1` [Compound 1022, 1-(3,5-Dimethyl-4-{(E)-2-[2-(7-methylsulfanyl-heptyl)-4-oxo-1,3,8-triaza-spiro[4.5]dec-1-ene-8-sulfonyl]-vinyl}-phenyl)-1-methyl-urea] is higher in “cAMP production activity (%)” value: 102% for the first, 105% for the second.

Going from `Cc1cc(N(C)C(N)=O)cc(C)c1CCS(=O)(=O)N1CCC2(CC1)N=C([C@H]1CCC[C@@H](CCC(C)C)C1)NC2=O` [Compound 1146, 1-[3,5-dimethyl-4-(2-{2-[(1S,3S)-3-(3-methyl-butyl)-cyclohexyl]-4-oxo-1,3,8-triaza-spiro[4.5]dec-1-ene-8-sulfonyl}-ethyl)-phenyl]-1-methyl-urea] to `Cc1cc(N(C)C(N)=O)cc(C)c1CC[S@TB4](=O)(=O)N1CCC2(CC1)N=C(CCCCCCCCCCCF)NC2=O` [Compound 1153, 1-(4-{2-[2-(11-fluoro-undecyl)-4-oxo-1,3,8-triaza-spiro[4.5]dec-1-ene-8-sulfonyl]-ethyl}-3,5-dimethyl-phenyl)-1-methyl-urea], the “cAMP production activity (%)” value falls from 107% to 106%.

Going from `Cc1cc(N(C)C(N)=O)cc(C)c1CCS(=O)(=O)N1CCC2(CC1)N=C(c1ccc3c(c1)OC(F)(F)O3)NC2=O` [Compound 1029, 1-(4-{2-[2-(2,2-difluoro-benzo[1,3]dioxol-5-yl)-4-oxo-1,3,8-triaza-spiro[4.5]dec-1-ene-8-sulfonyl]-ethyl}-3,5-dimethyl-phenyl)-1-methyl-urea] to `Cc1cc(S(=O)(=O)NC(CO)(CO)CO)ccc1/C=C/S(=O)(=O)N1CCC2(CC1)N=C(c1cccc(C(F)(F)F)c1)NC2=O` [Compound 595, N-(2-hydroxy-1,1-bis-hydroxymethyl-ethyl)-3-methyl-4-{(E)-2-[4-oxo-2-(3-trifluoromethyl-phenyl)-1,3,8-triaza-spiro[4.5]dec-1-ene-8-sulfonyl]-vinyl}-benzenesulfonamide], the “cAMP production activity (%)” value falls from 104% to 63%.

Same assay, conditions: HKRK-B7 cells; compound at 1×10^−3 M; cAMP produced as percentage of that produced by hPTH(1-34) at 100 nM; 0.1 µM

For `C#C[C@H]1CC[C@@H](C2=NC3(CCN(S(=O)(=O)CCc4ccc(NC(C)=O)cc4C)CC3)C(=O)N2)CC1` [Compound 1074, N-(4-{2-[2-(4-ethynyl-cyclohexyl)-4-oxo-1,3,8-triaza-spiro[4.5]dec-1-ene-8-sulfonyl]-ethyl}-3-methyl-phenyl)-acetamide], the “cAMP production activity (%)” value was 66%.
